Experimental data reported in ChEMBL document CHEMBL1141064, “Discovery and structure-activity relationships of novel sulfonamides as potent PTP1B inhibitors” (Bioorg Med Chem Lett, 2005).
pIC50, pKi: −log10 of the molar value.

Biological target: T1, Tyrosine-protein phosphatase non-receptor type 1 (Homo sapiens, UniProt P18031)
T1 sequence (P18031 whole entry): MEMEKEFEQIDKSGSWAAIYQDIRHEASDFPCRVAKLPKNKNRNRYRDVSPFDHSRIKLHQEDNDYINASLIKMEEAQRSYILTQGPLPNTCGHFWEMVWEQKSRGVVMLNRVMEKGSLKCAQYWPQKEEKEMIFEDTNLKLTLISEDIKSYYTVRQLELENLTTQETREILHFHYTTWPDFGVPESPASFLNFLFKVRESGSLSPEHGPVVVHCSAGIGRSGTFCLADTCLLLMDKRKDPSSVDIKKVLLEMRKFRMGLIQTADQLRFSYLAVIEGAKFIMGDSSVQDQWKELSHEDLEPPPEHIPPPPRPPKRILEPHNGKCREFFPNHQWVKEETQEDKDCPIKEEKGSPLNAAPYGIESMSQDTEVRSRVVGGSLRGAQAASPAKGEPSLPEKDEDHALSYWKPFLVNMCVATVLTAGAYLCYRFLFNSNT
Assay: Inhibitory activity against protein tyrosine phosphatase 1B using O-methyl fluorescein monophosphate

Row | SMILES | pIC50 | pKi
1 | O=C(O)COc1ccc(S(=O)(=O)N(Cc2ccc(-c3csnn3)cc2)Cc2ccc(C(F)(F)P(=O)(O)O)c(Br)c2)cc1 | 7.46 | 7.28
2 | COc1cc(CN(Cc2ccc(S(=O)(=O)N(C)C)cc2)S(=O)(=O)c2ccc(OCC(=O)O)cc2)ccc1C(F)(F)P(=O)(O)O | 5.96 | –
3 | O=P(O)(O)C(F)(F)c1ccc(CN(Cc2ccccc2)S(=O)(=O)c2ccccc2)cc1 | 5.38 | –
4 | CS(=O)(=O)Nc1ccc(CN(Cc2ccc(C(F)(F)P(=O)(O)O)cc2)S(=O)(=O)c2ccc(OCC(=O)O)cc2)cc1 | 6.74 | –
5 | O=C(c1ccc(CN(Cc2ccccc2)S(=O)(=O)c2ccccc2[N+](=O)[O-])cc1)C(F)(F)P(=O)(O)O | 4.92 | –
6 | O=C(O)COc1c(F)cc(S(=O)(=O)N(Cc2ccccc2)Cc2ccc(C(F)(F)P(=O)(O)O)cc2)cc1F | 6.00 | –
7 | Cc1cc(S(=O)(=O)N(Cc2ccccc2)Cc2ccc(C(F)(F)P(=O)(O)O)cc2)ccc1OCC(=O)O | 5.40 | –
8 | O=C(O)COc1ccc(S(=O)(=O)N(CC(=O)N2CCCCC2)Cc2ccc(C(F)(F)P(=O)(O)O)cc2)cc1 | 5.17 | –
9 | O=C(O)COc1ccc(S(=O)(=O)N(Cc2ccc(NC(=O)c3ccccc3)cc2)Cc2ccc(C(F)(F)P(=O)(O)O)cc2)cc1 | 6.20 | –
10 | O=C(O)COc1ccc(S(=O)(=O)N(Cc2ccc(-c3csnn3)cc2)Cc2ccc(C(F)(F)P(=O)(O)O)cc2)cc1 | 7.13 | 7.25
11 | O=C(O)COc1ccc(S(=O)(=O)N(Cc2ccccc2)Cc2ccc(C(F)(F)P(=O)(O)O)cc2)cc1C(F)(F)F | 5.40 | –
12 | O=C(O)COc1ccc(C(=O)N(Cc2ccc(-c3csnn3)cc2)Cc2ccc(C(F)(F)P(=O)(O)O)cc2)cc1 | 5.64 | –
13 | O=P(O)(O)C(F)(F)c1ccc(CNCc2ccc(-c3csnn3)cc2)cc1 | 4.86 | –
14 | O=C(O)COc1ccc(S(=O)(=O)N(Cc2ccccc2)Cc2ccc(C(F)(F)P(=O)(O)O)cc2)cc1Br | 5.40 | –
15 | O=C(O)COc1ccc(S(=O)(=O)N(Cc2ccc(C(F)(F)P(=O)(O)O)cc2)c2ccc(-c3csnn3)cc2)cc1 | 6.66 | –
16 | CN(C)S(=O)(=O)c1ccc(CN(Cc2ccc(C(F)(F)P(=O)(O)O)c(Br)c2)S(=O)(=O)c2ccc(OCC(=O)O)cc2)cc1 | 7.55 | 7.89
17 | O=C(O)c1cc(S(=O)(=O)N(Cc2ccccc2)Cc2ccc(C(F)(F)P(=O)(O)O)cc2)ccc1O | 5.54 | –
18 | CN(Cc1ccccc1)C(=O)CN(Cc1ccc(OCC(=O)O)cc1)Cc1ccc(C(F)(F)P(=O)(O)O)cc1 | 4.17 | –
19 | O=C(O)COc1ccc(S(=O)(=O)N(Cc2ccccc2)Cc2ccc(C(F)(F)P(=O)(O)O)cc2)cc1Cl | 5.52 | –
20 | O=P(O)(O)C(F)(F)c1ccc(CN(Cc2ccc(-c3csnn3)cc2)S(=O)(=O)c2ccccc2)cc1 | 6.68 | 7.01

Further lines, results first:

Row | pIC50 | pKi | SMILES
21 | 5.96 | – | CN(C)S(=O)(=O)c1ccc(CN(Cc2ccc(C(F)(F)P(=O)(O)O)cc2)S(=O)(=O)c2ccc(OCC(=O)O)cc2)cc1
22 | 5.52 | – | O=C(O)COc1ccc(S(=O)(=O)N(Cc2ccccc2)Cc2ccc(C(F)(F)P(=O)(O)O)cc2)cc1F
23 | 5.72 | – | Cc1cc(S(=O)(=O)N(Cc2ccccc2)Cc2ccc(C(F)(F)P(=O)(O)O)cc2)cc(C)c1OCC(=O)O
24 | 7.51 | 7.85 | CN(Cc1ccccc1)C(=O)CN(Cc1ccc(C(F)(F)P(=O)(O)O)c(Br)c1)S(=O)(=O)c1ccc(OCC(=O)O)cc1
25 | 6.00 | – | O=C(O)COc1ccc(S(=O)(=O)N(Cc2ccc(C(F)(F)P(=O)(O)O)cc2)Cc2cccs2)cc1
26 | 5.16 | – | O=C(c1ccc(O)cc1)N(Cc1ccc(-c2csnn2)cc1)Cc1ccc(C(F)(F)P(=O)(O)O)cc1
27 | 6.22 | 6.23 | CN(Cc1ccccc1)C(=O)CN(Cc1ccc(C(F)(F)P(=O)(O)O)cc1)S(=O)(=O)c1ccc(OCC(=O)O)cc1
28 | 5.30 | – | O=C(O)COc1ccc(S(=O)(=O)N(Cc2ccccc2)Cc2ccc(C(F)(F)P(=O)(O)O)cc2)cc1OC(F)(F)F
29 | 6.11 | – | CC(=O)c1cccc(CN(Cc2ccc(C(F)(F)P(=O)(O)O)cc2)S(=O)(=O)c2ccc(OCC(=O)O)cc2)c1
30 | 5.15 | – | O=[N+]([O-])c1ccccc1S(=O)(=O)N(Cc1ccccc1)Cc1ccc(C(F)(F)P(=O)(O)O)cc1
31 | 5.80 | – | O=C(O)COc1c(F)ccc(S(=O)(=O)N(Cc2ccccc2)Cc2ccc(C(F)(F)P(=O)(O)O)cc2)c1F
32 | 7.22 | – | COc1cc(CN(Cc2ccc(-c3csnn3)cc2)S(=O)(=O)c2ccc(OCC(=O)O)cc2)ccc1C(F)(F)P(=O)(O)O
33 | 6.22 | – | O=C(O)COc1ccc(S(=O)(=O)N(Cc2ccccc2)Cc2ccc(C(F)(F)P(=O)(O)O)cc2)cc1
34 | 5.05 | – | CC(=O)NCCN(Cc1ccc(C(F)(F)P(=O)(O)O)cc1)S(=O)(=O)c1ccc(OCC(=O)O)cc1
